Test results as given in patent US20100021524A1 (OsteoGeneX Inc., priority 2008, published 2010).
Structures can show the parent of a compound that is named as a salt.

Experiments:
mouse = test: Mouse bone formation assay for SOST antagonist candidates, examined by micro-CT; type: in vivo; conditions: complete dosing schedule, versus control solution
Excerpt: Compounds useful in the methods of the present invention can be identified via a variety of methods known to one of skill in the art. Several exemplary methods for identifying such antagonists are described herein, including cell-based and in vitro techniques (Journal of Bone and Mineral Research 2006, 21(11), 1738-1749). A general method of identifying SOST antagonists involves evaluating the effects of antagonist candidates on bone formation under controlled conditions. Preferably bone formation is determined using micro-CT techniques on live animals. Preferred animals include rodents, more preferred are primates. Femur, tibia and vertebrae bones are particularly useful subjects for such study.
Briefly, the test animal is treated with a predetermined dose of a SOST antagonist candidate. […]
Once the dosing schedule has been completed, both test and control animals are examined to determine the quantity of bone formation present. […] Where necessary, levels of bone formation can be calculated by determining the volume of bone formation present in each animal. […]
For example, the mouse test animal is treated with a predetermined dose of a SOST antagonist candidate for a complete dosing schedule. […] Once the dosing schedule has been completed, both test and control animals are examined with sacrifice using micro-CT to determine the quantity of bone formation present.

Wnt pathway = test: Modulation of the Wnt pathway to promote bone growth (FIG. 1); conditions: doses of 2.5 ng (low), 125 ng (high) and 1250 ng (very high)
Experimental: For example, the mouse test animal is treated with a predetermined dose of a SOST antagonist candidate for a complete dosing schedule. A control mouse is treated with a control solution, preferably a non-irritating buffer solution or other carrier. Once the dosing schedule has been completed, both test and control animals are examined with sacrifice using micro-CT to determine the quantity of bone formation present.

C57BL/6 mice = test: Bone growth with pimethixene: 30-day daily i.p. treatment, serum osteocalcin (EIA Elisa) and trabecular bone volume (micro-CT); type: in vivo, mouse; conditions: four month old male C57BL/6 mice, daily i.p. for 30 days, FIG. 2
Experimental: Four month old male C57BL/6 mice were treated daily with saline vehicle or the sclerostin inhibitor of pimethixene at several doses (via i.p) for 30 days. Study endpoints included a biochemical marker of bone formation; osteocalcin, measured by EIA Elisa, and measurement of trabecular bone volume by mico-CT analysis on the proximal tibia and spine (lumbar 5).

| Structure (SMILES) | bone growth (quantity of bone formation present, micro-CT) (mouse) | modulating the Wnt pathway to promote bone growth (Wnt pathway) | increase in bone volume for lumbar 5 over baseline controls, μ-CT analysis (C57BL/6 mice; dosed at 0.01 mg/kg, 0.1 mg/kg or 10 mg/kg) | percent increase in serum osteocalcin bone formation marker over saline controls (C57BL/6 mice; dosed between 10 mg/kg and 0.1 mg/kg) [%] |
| --- | --- | --- | --- | --- |
| CN1CCC(=C2c3ccccc3Sc3ccccc32)CC1 [pimethixene] | promoting bone growth |  |  |  |
| CN1CCC(=C2c3ccccc3Sc3ccccc32)CC1 [pimethixene maleate] |  | modulating the Wnt pathway to promote bone growth | greater than 30% | 25 |
